Legend:
[1] = hydroxyl radical scavenging; conditions: mean ± SD (n = 3), read-out: OH IC50 Value
Procedure, shortened: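 Fenton system of H2O2 (0.03%), FeSO4 (2 mmol/L) and salicylic acid (10 mmol/L) with compound solutions (0.4–2.0 mg/mL), incubated 30 min at 37 °C. Absorbance read at 510 nm. % OH scavenging = [A0−(A1−A2)]/A0×100, with A2 a sample blank using ethanol in place of salicylic acid.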

AGEs formation = experiment: In vitro inhibitory activity of AGEs formation (bovine serum albumin/glucose); type: biochemical; conditions: mean ± SD (n = 3)
Procedure, shortened: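 Bovine serum albumin (10 mg/mL) with 0.2 M glucose in 50 mM PBS, pH 7.4, plus 0.02% sodium azide, was mixed with compound solutions (0.5–1000 μg/mL in DMSO) and held 14 d at 37 °C. AGE fluorescence was read at ex 350/em 420 nm in triplicate. Inhibition was corrected with glucose-free blanks, and IC50 calculated.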

STZ-diabetic mice = experiment: Acute hypoglycemic assay in STZ-diabetic mice; type: in vivo; conditions: for highest anti-hyperglycemic effect: STZ-diabetic mice; for Blood glucose concentration / % Variation of glycemia: STZ-diabetics mice
Procedure, shortened: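 Mice made diabetic by single i.p. STZ 110 mg/kg in citrate buffer pH 4.5; blood glucose >11 mM after 7 days required. After 12 h fast, compounds at 10, 30, 100 mg/kg given intragastrically in 0.05% Tween-80/saline; blood glucose read at 0, 1.5, 3, 5, 7, 9 h post-dose.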

[2] = system: STZ-induced diabetic mice; experiment: Daily treatment for 16 days in STZ-induced diabetic mice; type: in vivo
Experimental: Thereafter, the target compounds 11, 17, 35, and glibenclamide were administered once (9 a.m.) on a daily basis, for a period of 16 days, to STZ-induced diabetic mice which were divided into five groups (A-E). A six group of normal mice (Group F) was used as a control. Groups E (diabetic control) and F received vehicle (0.05% Tween-80 in saline solution) per os for 16 days. Group A received glibenclamide (10 mg/kg of bw daily). Groups B–D received different treatments: B, compound 11 (30 mg/kg of bw daily); C, compound 17 (30 mg/kg of bw daily); D, compound 35 (30 mg/kg of bw daily). All tested materials were suspended in the same vehicle and administered per os daily for 16 days. The animals were housed under standard laboratory conditions and maintained with free access to water and food during all the experiment. Blood glucose concentration on animals of diabetic (Groups A–E) and control group (Group F) was estimated at days 1, 4, 7, 10, 13, and 16. The bw of the animals were measured concomitantly to the blood glucose analyses. All experiments were carried out using six animals per group.

COc1ccc(-c2cc3c(O)cc(O)cc3oc2=O)cc1 [Compound 35, 5,7-Dihydroxy-3-(4-methoxyphenyl)-coumarin]
IC50 [1]: 270 ± 41.6 µM | IC50 (AGEs formation): 5.21 ± 0.07 µM | hypoglycemic effect (STZ-diabetic mice; STZ-diabetic animals, 30 mg/kg of bw, started from 3 h and persisted throughout the experiment): > 50% | highest anti-hyperglycemic effect (STZ-diabetic mice; 10 mg/kg, at 7 h): ~73.66% | highest anti-hyperglycemic effect (STZ-diabetic mice; 30 mg/kg, at 9 h): ~74.54% | Blood glucose concentration (STZ-diabetic mice; 10 mg/kg of bw per os, 0h): 20.5 ± 7.1 mM | % Variation of glycemia (STZ-diabetic mice; 10 mg/kg of bw per os, 1.5h): (−36.10) % | Blood glucose concentration (STZ-diabetic mice; 10 mg/kg of bw per os, 1.5h): 13.1 ± 6.4 mM | % Variation of glycemia (STZ-diabetic mice; 10 mg/kg of bw per os, 3h): (−47.81) % | Blood glucose concentration (STZ-diabetic mice; 10 mg/kg of bw per os, 3h): 10.7 ± 5.7 mM | % Variation of glycemia (STZ-diabetic mice; 10 mg/kg of bw per os, 5h): (−72.68) % | Blood glucose concentration (STZ-diabetic mice; 10 mg/kg of bw per os, 5h): 5.6 ± 3.1 mM | % Variation of glycemia (STZ-diabetic mice; 10 mg/kg of bw per os, 7h): (−73.66) % | Blood glucose concentration (STZ-diabetic mice; 10 mg/kg of bw per os, 7h): 5.4 ± 3.4 mM | % Variation of glycemia (STZ-diabetic mice; 10 mg/kg of bw per os, 9h): (−72.20) % | Blood glucose concentration (STZ-diabetic mice; 10 mg/kg of bw per os, 9h): 5.7 ± 3.1 mM | Blood glucose concentration (STZ-diabetic mice; 30 mg/kg of bw per os, 0h): 21.6 ± 4.4 mM | % Variation of glycemia (STZ-diabetic mice; 30 mg/kg of bw per os, 1.5h): (−44.44) % | Blood glucose concentration (STZ-diabetic mice; 30 mg/kg of bw per os, 1.5h): 12.0 ± 3.7 mM | % Variation of glycemia (STZ-diabetic mice; 30 mg/kg of bw per os, 3h): (−51.39) % | Blood glucose concentration (STZ-diabetic mice; 30 mg/kg of bw per os, 3h): 10.5 ± 5.1 mM | % Variation of glycemia (STZ-diabetic mice; 30 mg/kg of bw per os, 5h): (−70.83) % | Blood glucose concentration (STZ-diabetic mice; 30 mg/kg of bw per os, 5h): 6.3 ± 4.3 mM | % Variation of glycemia (STZ-diabetic mice; 30 mg/kg of bw per os, 7h): (−73.61) % | Blood glucose concentration (STZ-diabetic mice; 30 mg/kg of bw per os, 7h): 5.7 ± 6.7 mM | % Variation of glycemia (STZ-diabetic mice; 30 mg/kg of bw per os, 9h): (−74.54) % | Blood glucose concentration (STZ-diabetic mice; 30 mg/kg of bw per os, 9h): 5.5 ± 5.2 mM | Blood glucose concentration (STZ-diabetic mice; 100 mg/kg of bw per os, 0h): 20.3 ± 4.4 mM | % Variation of glycemia (STZ-diabetic mice; 100 mg/kg of bw per os, 1.5h): (−25.62) % | Blood glucose concentration (STZ-diabetic mice; 100 mg/kg of bw per os, 1.5h): 15.1 ± 5.0 mM | % Variation of glycemia (STZ-diabetic mice; 100 mg/kg of bw per os, 3h): (−48.28) % | Blood glucose concentration (STZ-diabetic mice; 100 mg/kg of bw per os, 3h): 10.5 ± 4.9 mM | % Variation of glycemia (STZ-diabetic mice; 100 mg/kg of bw per os, 5h): (−64.53) % | Blood glucose concentration (STZ-diabetic mice; 100 mg/kg of bw per os, 5h): 7.2 ± 2.6 mM | % Variation of glycemia (STZ-diabetic mice; 100 mg/kg of bw per os, 7h): (−64.53) % | Blood glucose concentration (STZ-diabetic mice; 100 mg/kg of bw per os, 7h): 7.2 ± 3.9 mM | % Variation of glycemia (STZ-diabetic mice; 100 mg/kg of bw per os, 9h): (−68.47) % | Blood glucose concentration (STZ-diabetic mice; 100 mg/kg of bw per os, 9h): 6.4 ± 2.0 mM | bw loss in hyperglycemic mice ([2]; 30 mg/kg of bw daily per os, 16 days): prevented bw loss | blood glucose levels at the end of the experiment ([2]; 30 mg/kg of bw daily, 16 days): restored blood glucose levels to near normal values | long-term anti-hyperglycemic effect (blood glucose levels) ([2]; 30 mg/kg of bw oral, once a day, for 16 days): induced obviously anti-hyperglycemic effect
